Measurements reported in ChEMBL document CHEMBL5257035, “Nucleoside Derived Antibiotics to Fight Microbial Drug Resistance: New Utilities for an Established Class of Drugs?” (J Med Chem, 2016).
In brackets after ≈: the same amount, converted by molar mass.

What was measured:
Candida albicans [1] = assay: Antifungal activity against Candida albicans ATCC 10231 assessed as reduction in fungal growth incubated for 12 hrs by broth microdilution method; assay type: functional
Pseudomonas aeruginosa [2] = assay: Antibacterial activity against Pseudomonas aeruginosa assessed as bacterial growth inhibition; assay type: functional
Pseudomonas aeruginosa [3] = assay: Antibacterial activity against Pseudomonas aeruginosa infected in mouse; assay type: functional
Pseudomonas aeruginosa [4] = assay: Antimicrobial activity against Pseudomonas aeruginosa ATCC 15692 assessed as microbial inhibition; assay type: functional, organism-based
Enterococcus faecalis = assay: Antimicrobial activity against Enterococcus faecalis ATCC 29212 assessed as microbial growth inhibition; assay type: functional, organism-based
Escherichia coli = assay: Antibacterial activity against Escherichia coli K12 assessed as bacterial growth inhibition by broth microdilution method; assay type: functional
Proline--tRNA ligase = Proline--tRNA ligase (Escherichia coli, UniProt P16659); assay: Binding affinity to Escherichia coli K12 Prolyl-tRNA synthetase
[5] = molecular target: Phospho-N-acetylmuramoyl-pentapeptide-transferase (Bacillus subtilis (strain 168)) (UniProt Q03521); assay: Inhibition of Bacillus subtilis MraY at 2.3 uM relative to control
Pseudomonas aeruginosa [6] = assay: Antibacterial activity against Pseudomonas aeruginosa ATCC 15442 assessed as bacterial growth inhibition measured after 48 hrs by micro-broth dilution method; assay type: functional
[7] = tested on: Mycolicibacterium smegmatis; assay: Antimycobacterial activity against Mycobacterium smegmatis assessed as microbial growth inhibition; assay type: functional
[8] = Inhibition of Bacterial MraY; parameters: species or system Bacteria
[9] = Inhibition of Escherichia coli RNA polymerase
[10] = tested on: Mycobacterium tuberculosis; assay: Antibacterial activity against Mycobacterium tuberculosis ATCC 27294 assessed as reduction in bacterial growth by LORA method; assay type: functional
Streptococcus pneumoniae = assay: Antibacterial activity against Streptococcus pneumoniae B1 assessed as bacterial growth inhibition; assay type: functional
[11] = tested on: Staphylococcus chromogenes; assay: Antibacterial activity against wild type Staphylococcus chromogenes 7100 assessed as bacterial growth inhibition; assay type: functional
Candida albicans [12] = assay: […] activity against Candida albicans assessed as […] measured after 24 hrs by microtitre dilution method; assay type: functional
Candida albicans [13] = assay: Antifungal activity against Candida albicans assessed as inhibition of fungal growth; assay type: functional
Candida albicans [14] = assay: Antifungal activity against Candida albicans B-311 assessed as reduction fungal growth incubated for 16 hrs by microbroth dilution method; assay type: functional
[15] = tested on: Cutaneotrichosporon cutaneum; assay: Antifungal activity against Trichosporon cutaneum 3071 assessed as reduction in microbial growth inhibition for 48 hrs by broth microdilution assay; assay type: functional
[16] = Inhibition of Candida albicans SC5314 chitin synthase using UDP-GlcNAc as substrate incubated for 1 hr
Candida albicans [17] = assay: Antifungal activity against Candida albicans SC5314 assessed as reduction in microbial growth inhibition incubated for 48 hrs by broth microdilution assay; assay type: functional
Mycobacterium kansasii = assay: Antimycobacterial activity against Mycobacterium kansasii ATCC12478 assessed as microbial growth reduction; assay type: functional
[18] = tested on: Mycobacterium intracellulare; assay: Antimycobacterial activity against Mycobacterium intracellulare ATCC1954 E-3 assessed as microbial growth reduction; assay type: functional
[19] = Inhibition of Bacillus stearothermophilus tyrosyl tRNA synthetase; parameters: species or system Geobacillus stearothermophilus
[20] = molecular target: Phospho-N-acetylmuramoyl-pentapeptide-transferase (Bacillus subtilis (strain 168)) (UniProt Q03521); assay: Inhibition of Bacillus subtilis MraY at 11.4 uM relative to control
Pseudomonas aeruginosa [21] = assay: Antibacterial activity against Pseudomonas aeruginosa assessed as bacterial growth reduction; assay type: functional
Pseudomonas aeruginosa [22] = assay: Antibacterial activity against Pseudomonas aeruginosa assessed as reduction in bacterial growth; assay type: functional
Pseudomonas aeruginosa [23] = assay: Antimicrobial activity against Pseudomonas aeruginosa ATCC 27853 assessed as inhibition of microbial growth
[24] = molecular target: Phospho-N-acetylmuramoyl-pentapeptide-transferase (Bacillus subtilis (strain 168), UniProt Q03521); assay: Inhibition of Bacillus subtilis MraY
Chain of Phospho-N-acetylmuramoyl-pentapeptide-transferase (Q03521 whole entry): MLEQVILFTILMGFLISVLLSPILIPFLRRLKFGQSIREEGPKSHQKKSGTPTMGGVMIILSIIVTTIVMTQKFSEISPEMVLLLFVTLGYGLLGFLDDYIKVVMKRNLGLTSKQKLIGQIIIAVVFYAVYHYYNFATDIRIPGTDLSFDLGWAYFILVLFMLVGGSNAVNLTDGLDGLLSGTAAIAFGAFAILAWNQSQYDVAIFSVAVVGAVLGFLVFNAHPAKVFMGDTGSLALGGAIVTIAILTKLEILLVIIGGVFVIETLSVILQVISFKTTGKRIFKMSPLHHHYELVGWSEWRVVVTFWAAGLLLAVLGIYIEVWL

Chain of Phospho-N-acetylmuramoyl-pentapeptide-transferase (Bacillus subtilis (strain 168)) (Q03521 whole entry): as above
Chain of Proline--tRNA ligase (P16659 whole entry): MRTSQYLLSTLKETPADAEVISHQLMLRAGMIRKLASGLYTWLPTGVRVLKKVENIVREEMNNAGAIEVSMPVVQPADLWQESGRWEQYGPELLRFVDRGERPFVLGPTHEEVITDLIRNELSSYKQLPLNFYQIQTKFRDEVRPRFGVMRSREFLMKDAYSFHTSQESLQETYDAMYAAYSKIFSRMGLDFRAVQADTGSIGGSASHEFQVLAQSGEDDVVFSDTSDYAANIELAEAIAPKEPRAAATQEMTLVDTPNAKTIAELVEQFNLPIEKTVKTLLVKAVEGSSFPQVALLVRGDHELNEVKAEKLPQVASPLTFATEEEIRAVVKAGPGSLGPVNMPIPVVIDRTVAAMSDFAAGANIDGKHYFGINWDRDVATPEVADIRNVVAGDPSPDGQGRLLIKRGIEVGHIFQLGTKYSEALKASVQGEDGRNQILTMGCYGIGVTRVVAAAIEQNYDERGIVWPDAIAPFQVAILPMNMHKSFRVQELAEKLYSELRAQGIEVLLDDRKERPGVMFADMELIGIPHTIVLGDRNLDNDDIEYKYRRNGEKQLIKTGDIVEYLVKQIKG

CC1(C)O[C@@H]2[C@H](O1)[C@@H](Cn1cc(COc3ccccc3)nn1)O[C@H]2n1ccc(=O)[nH]c1=O
MIC (Candida albicans [1]): 8 mg/L (≈ 18.1 µM)

CSCC[C@H](NC(=O)NC(Cc1cccc(O)c1)C(=O)O)C(=O)NC(CN(C)C(=O)[C@@H](N)C(N)Cc1cccc(O)c1)C(=O)N/C=C1/C[C@@H](O)[C@H](N2CCC(=O)NC2=O)O1 (stereo partly specified)
MIC (Pseudomonas aeruginosa [2]): 1.5 mg/L (≈ 1.75 µM)
ED50 (Pseudomonas aeruginosa [3]): > 0.1 mg/kg

CCCC(C)CC(C)CC(C)/C=C(C)/C=C/C(O)C(C)C(=O)OC1C(O)CN2CC1NC[C@H]1O[C@@H](OC([C@H]3O[C@@H](n4ccc(=O)[nH]c4=O)[C@H](O)[C@@H]3OS(=O)(=O)O)C2C(=O)O)[C@H](O)[C@@H]1O (stereo partly specified)
IC50 (Pseudomonas aeruginosa [4]): 0.065 mg/L (≈ 0.0697 µM)
IC50 (Enterococcus faecalis): 0.012 mg/L (≈ 0.0129 µM)

Nc1nc2c(ncn2[C@@H]2O[C@H](CO)[C@@H](O)[C@H]2O)c(=O)o1
MIC (Escherichia coli): 12.5 mg/L (≈ 44 µM)

Nc1ncnc2c1ncn2[C@@H]1O[C@H](COS(=O)(=O)NC(=O)[C@H]2CCCN2)[C@@H](O)[C@H]1O
Ki (Proline--tRNA ligase): 0.49 µM

C[C@H](N)C(=O)N(C)CCOC[C@H]1O[C@@H](n2ccc(=O)[nH]c2=O)[C@H](O)[C@@H]1O
inhibition [5]: 97%

C[C@H](N)C(=O)N(C)C[C@H](NC(=O)[C@H](C)NC(=O)N[C@@H](Cc1c[nH]c2ccccc12)C(=O)O)C(=O)NCC1C[C@@H](O)[C@H](n2ccc(=O)[nH]c2=O)O1 (stereo partly specified)
MIC (Pseudomonas aeruginosa [6]): 64 mg/L (≈ 91.5 µM)

CO[C@H]1[C@@H](O)[C@H](n2ccc(=O)[nH]c2=O)O[C@@H]1[C@@H](O[C@@H]1OC(C(=O)N[C@H]2CCCCNC2=O)=C[C@@H](O)[C@H]1O)C(N)=O
MIC [7]: 3 mg/L (≈ 5.27 µM)
Ki [8]: 0.01 mg/L (≈ 0.0176 µM)
IC50 [9]: 0.1 µM
MIC [10]: 100 mg/L (≈ 176 µM)
MIC (Streptococcus pneumoniae): 12.5 mg/L (≈ 21.9 µM)

C[C@@H]([C@H](N)C(=O)N[C@H](C(=O)O)[C@H]1OC(n2cc(C=O)nc2O)[C@H](O)[C@@H]1O)[C@H](O)c1ccc(O)cn1 (stereo partly specified) [NIKKOMYCIN X]
MIC [11]: 2 mg/L (≈ 4.04 µM)
MIC (Candida albicans [12]): 0.5 mg/L (≈ 1.01 µM)
MIC (Candida albicans [13]): 2 mg/L (≈ 4.04 µM)
MIC (Candida albicans [14]): 2.5 mg/L (≈ 5.05 µM)
MIC [15]: 64 mg/L
IC50 [16]: 0.1 mg/L (≈ 0.202 µM)
MIC (Candida albicans [17]): 16 mg/L

CO[C@H]1[C@@H](O)[C@H](n2ccc(=O)[nH]c2=O)O[C@@H]1[C@@H](O[C@@H]1OC(C(=O)Nc2ccc(F)c(F)c2)=C[C@@H](O)[C@H]1O)C(N)=O
MIC (Mycobacterium kansasii): 0.5 mg/L (≈ 0.876 µM)
MIC [18]: 0.5 mg/L (≈ 0.876 µM)

CSCC[C@H](NC(=O)NC(Cc1cccc(O)c1)C(=O)O)C(=O)NC(CN(C)C(=O)[C@@H](N)C(N)Cc1cccc(O)c1)C(=O)N/C=C1/C[C@@H](O)[C@H](n2ccc(=O)[nH]c2=O)O1 (stereo partly specified)
MIC (Pseudomonas aeruginosa [2]): 1.5 mg/L (≈ 1.75 µM)
ED50 (Pseudomonas aeruginosa [3]): 0.05 mg/kg

Nc1ncnc2c1ncn2[C@@H]1O[C@H](COP(=O)(O)OCC(N)Cc2ccc(O)cc2)[C@@H](O)[C@H]1O (stereo partly specified)
Ki [19]: 0.011 µM

NC[C@H]1O[C@@H](OC[C@H]2O[C@@H](n3ccc(=O)[nH]c3=O)[C@H](OS(=O)(=O)O)C2(F)F)[C@H](O)[C@@H]1O
inhibition [20]: 29%

C[C@@H](NC(=O)N[C@@H](Cc1c[nH]c2ccccc12)C(=O)O)C(=O)N[C@H](C(=O)N/C=C1/C[C@@H](O)[C@H](n2ccc(=O)[nH]c2=O)O1)[C@H](C)N(C)C(=O)[C@@H](N)CN
MIC (Pseudomonas aeruginosa [21]): 16 mg/L (≈ 22 µM)
MIC (Pseudomonas aeruginosa [22]): 32 mg/L (≈ 44 µM)
MIC (Pseudomonas aeruginosa [23]): 4 mg/L
IC50 [24]: 0.022 µM
